# In patent publication US11667623B2, “Scaffold of adenylyl cyclase inhibitors for chronic pain and opioid dependence” (Purdue Research Foundation, priority 2017, dated 2023):
# Read-outs that look alike come from different tables or passages of the source.
# Key:
# chronic pain responses [1] = conditions: mice; literature; cited from earlier work
# chronic pain responses [2] = conditions: rats; literature; cited from earlier work
# hAC2 [3] = biological target: T1, hAC2 (Homo sapiens, UniProt Q08462); test: Cyclic AMP accumulation in stable HEK-AC2 cells, stimulated with 100 nM PMA; type: cell-based; conditions: Table 1, at 30 μM, negative = potentiated, n = 2
# T1 construct: expressed in transfected cells
# Description: (§1) Cyclic AMP accumulation was measured as previously described (Brust, et al., J. Pharmacol. Exp. Ther. 352, 480-493(2015)). Briefly, cryopreserved cells were thawed, resuspended in optiMEM (Life Technologies), and plated in white, flat bottom, low-volume, tissue culture-treated 384 well plates (PerkinElmer, Shelton, Conn.). Plates with cells were incubated in a 37° C. humidified incubator for 1 h. Inhibitors were added and plates were incubated at room temperature for 30 min followed by the addition of AC stimulants in the presence of 500 μM IBMX. Cells were incubated at room temperature for 1 h and cAMP accumulation was measured using Cisbio's cAMP kit (Cisbio Bioassays, Bedford, Mass.) according to the manufacturer's instructions.
# hAC5 [4] = biological target: T2, hAC5 (Homo sapiens, UniProt O95622); test: Cyclic AMP accumulation in stable HEK-AC5 cells, stimulated with 300 nM forskolin; type: cell-based; conditions: Table 1, at 30 μM, negative = potentiated, n = 2
# T2 construct: expressed in transfected cells
# Description: as §1
# hAC1 [5] = biological target: T3, hAC1 (Homo sapiens, UniProt Q08828); test: Cyclic AMP accumulation (HTRF) in HEK cells stably expressing AC1, stimulated with A23187; type: cell-based; conditions: for Selectivity AC1 vs AC8: AC8 IC50/AC1 IC50, without AC8 IC50, estimate based on IC50 ≥30 μM; for inhibition at 30 µM: HEK293
# T3 construct: expressed in transfected cells
# Description: The screen was carried out using HEK cells stably expressing AC1 (HEK-AC1) and cyclic AMP accumulation was stimulated using the Ca^2+ ionophore, A23187 to selectively activate AC1.
# Both AC1 and AC8 are robustly activated by Ca^2+/CaM under a variety of conditions, whereas the effects of Ca^2+/CaM on AC3 are modest and conditional requiring activation by G proteins.
# The primary technology we employed to measure cAMP accumulation was a homogenous time-resolved fluorescence (HTRF) assay, the same technology utilized in the primary screen. […]
# as §1, with “Briefly,” for “Cyclic AMP accumulation was measured as previously described (Brust, et al., J. Pharmacol. Exp. Ther. 352, 480-493(2015)). Briefly,”
# HEK-AC1 cells [6] = system: HEK-AC1 cells
# Description: Cell viability assays were conducted with HEK-AC1 cells following plating and compound incubation protocols identical to the procedures described above in “Cyclic AMP assays in cells”. Cell viability was measured as a percentage of vehicle using 2% Triton X-100 (Sigma-Aldrich) as a control. The CellTiter-Glo® Luminescent Cell Viability Assay kit from Promega (Madison, Wis.) was employed to assess cell viability according to the manufacturer's instructions. Luminescence counts were measured using a Synergy 4.
# hAC8 = biological target: T4, hAC8 (Homo sapiens, UniProt P40145); test: Cyclic AMP accumulation (HTRF) in HEK cells stably expressing AC8, stimulated with A23187; type: cell-based; conditions: for hAC8 % Inhib: at 30 μM, negative values indicate a potentiated response; for inhibition at 30 µM: HEK293
# T4 construct: expressed in transfected cells
# Description: Fresh powders of several robust inhibitors (>90% inhibition) were evaluated in multiple confirmation assays assessing the dose response relationship for inhibiting AC1 and AC8 activity. Confirmation assays used A23817 to selectively stimulate recombinant AC1 or AC8 in the HEK cell background (Cumbay and Watts (2001), J. Pharmacol Exp Ther 297:1201-1399). This approach takes advantage of one unique regulatory property of AC1 for the development of selective inhibitors. Both AC1 and AC8 are robustly activated by Ca^2+/CaM under a variety of conditions, whereas the effects of Ca^2+/CaM on AC3 are modest and conditional requiring activation by G proteins. Previous studies have identified unique Ca^2+/CaM binding domains as one possible site of interaction to achieve AC1 (vs. AC8) selectivity (Masada et al., 2012, Biochemistry 51:7917-7929).
# The primary technology we employed to measure cAMP accumulation was a homogenous time-resolved fluorescence (HTRF) assay, the same technology utilized in the primary screen.
# Human embryonic kidney (HEK) cells stably expressing AC1, AC8, or AC1 with the MOR were cultured in Dulbecco's Modified Eagle Medium (Life Technologies, Grand Island, N.Y.) supplemented with 5% bovine calf serum (Hyclone, Logan, Utah), 5% fetal clone I (Hyclone), Antibiotic-Antimycotic (Life Technologies), and G418 (Invivogen, San Diego, Calif.) (HEK-AC1), or hygromycin B (Fisher Scientific, Pittsburgh, Pa.) (HEK-AC8), or G418 and puromycin (Sigma-Aldrich) (HEK-AC1/MOR). Chinese hamster ovary (CHO) cells expressing the MOR (CHO-MOR) in the PathHunter® β-Arrestin GPCR assay platform were purchased from DiscoveRx (Freemont, Calif.). Cells were grown in Ham's F12 media supplemented with 1 mM L-glutamine (Thermo Scientific, West Palm Beach, Fla.), 10% fetal bovine serum (Hyclone), 50 Um′ penicillin, 50 μg/ml streptomycin (Life Technologies), G418 and hygromycin B. Cells were grown and frozen as previously described (J. M. Conley, et al., J Vis Exp, e51218 (2014)).
# as §1
# hAC1 [7] = biological target: T3, hAC1; conditions: Table 1; data from Brust et al. 2017; cited from earlier work
# hAC2 [8] = biological target: T1, hAC2; conditions: Table 1; at 30 μM; 100 nM PMA; data from Brust et al. 2017; cited from earlier work
# HEK-AC1 cells [9] = conditions: data from Brust et al. 2017; cited from earlier work
# hAC5 [10] = biological target: T2, hAC5; conditions: Table 1; at 30 μM; 300 nM forskolin; data from Brust et al. 2017; cited from earlier work
# [11] = Table 1, stable HEK cells, A23187-stimulated cAMP, n ≥ 3
# [12] = Table 1, stable HEK cells, A23187-stimulated cAMP, n ≥ 3, read-out: hAC1 IC50
# [13] = Table 1, stable HEK cells, A23187-stimulated cAMP, n ≥ 3, read-out: hAC8 IC50
# [14] = Table 2, read-out: HEK-AC1 IC50
# T2 sequence (O95622 whole entry): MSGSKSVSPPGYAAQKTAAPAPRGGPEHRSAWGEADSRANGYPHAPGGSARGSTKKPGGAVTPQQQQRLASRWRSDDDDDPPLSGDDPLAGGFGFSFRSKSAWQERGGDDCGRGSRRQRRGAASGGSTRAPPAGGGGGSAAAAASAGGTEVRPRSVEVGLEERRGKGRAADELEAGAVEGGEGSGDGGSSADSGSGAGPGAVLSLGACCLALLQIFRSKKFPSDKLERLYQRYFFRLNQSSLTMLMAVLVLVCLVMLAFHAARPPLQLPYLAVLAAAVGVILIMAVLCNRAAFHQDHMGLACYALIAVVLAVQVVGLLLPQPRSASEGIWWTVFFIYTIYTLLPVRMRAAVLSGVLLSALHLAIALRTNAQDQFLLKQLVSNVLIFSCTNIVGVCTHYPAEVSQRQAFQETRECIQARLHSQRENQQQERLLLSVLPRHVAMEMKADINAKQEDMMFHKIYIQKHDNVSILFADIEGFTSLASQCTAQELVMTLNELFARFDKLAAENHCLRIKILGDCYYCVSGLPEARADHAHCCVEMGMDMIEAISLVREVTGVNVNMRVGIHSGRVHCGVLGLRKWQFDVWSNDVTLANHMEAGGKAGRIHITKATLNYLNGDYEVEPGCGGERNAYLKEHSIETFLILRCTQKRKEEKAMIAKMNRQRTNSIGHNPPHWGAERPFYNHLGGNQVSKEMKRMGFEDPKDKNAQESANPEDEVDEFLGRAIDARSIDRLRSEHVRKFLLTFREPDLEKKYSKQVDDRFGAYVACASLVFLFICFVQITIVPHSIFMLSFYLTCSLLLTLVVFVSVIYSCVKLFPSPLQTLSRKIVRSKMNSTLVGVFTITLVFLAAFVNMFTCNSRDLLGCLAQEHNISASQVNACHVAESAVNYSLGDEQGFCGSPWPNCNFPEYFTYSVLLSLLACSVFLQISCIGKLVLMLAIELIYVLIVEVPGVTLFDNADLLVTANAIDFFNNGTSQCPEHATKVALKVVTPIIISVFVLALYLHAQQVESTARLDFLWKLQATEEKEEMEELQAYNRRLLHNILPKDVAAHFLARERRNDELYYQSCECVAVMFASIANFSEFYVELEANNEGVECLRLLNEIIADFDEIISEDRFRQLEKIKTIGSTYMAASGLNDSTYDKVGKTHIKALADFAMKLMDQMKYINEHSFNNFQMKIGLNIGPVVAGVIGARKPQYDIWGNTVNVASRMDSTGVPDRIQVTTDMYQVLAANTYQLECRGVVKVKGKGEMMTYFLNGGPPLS
# T1 sequence (Q08462 whole entry): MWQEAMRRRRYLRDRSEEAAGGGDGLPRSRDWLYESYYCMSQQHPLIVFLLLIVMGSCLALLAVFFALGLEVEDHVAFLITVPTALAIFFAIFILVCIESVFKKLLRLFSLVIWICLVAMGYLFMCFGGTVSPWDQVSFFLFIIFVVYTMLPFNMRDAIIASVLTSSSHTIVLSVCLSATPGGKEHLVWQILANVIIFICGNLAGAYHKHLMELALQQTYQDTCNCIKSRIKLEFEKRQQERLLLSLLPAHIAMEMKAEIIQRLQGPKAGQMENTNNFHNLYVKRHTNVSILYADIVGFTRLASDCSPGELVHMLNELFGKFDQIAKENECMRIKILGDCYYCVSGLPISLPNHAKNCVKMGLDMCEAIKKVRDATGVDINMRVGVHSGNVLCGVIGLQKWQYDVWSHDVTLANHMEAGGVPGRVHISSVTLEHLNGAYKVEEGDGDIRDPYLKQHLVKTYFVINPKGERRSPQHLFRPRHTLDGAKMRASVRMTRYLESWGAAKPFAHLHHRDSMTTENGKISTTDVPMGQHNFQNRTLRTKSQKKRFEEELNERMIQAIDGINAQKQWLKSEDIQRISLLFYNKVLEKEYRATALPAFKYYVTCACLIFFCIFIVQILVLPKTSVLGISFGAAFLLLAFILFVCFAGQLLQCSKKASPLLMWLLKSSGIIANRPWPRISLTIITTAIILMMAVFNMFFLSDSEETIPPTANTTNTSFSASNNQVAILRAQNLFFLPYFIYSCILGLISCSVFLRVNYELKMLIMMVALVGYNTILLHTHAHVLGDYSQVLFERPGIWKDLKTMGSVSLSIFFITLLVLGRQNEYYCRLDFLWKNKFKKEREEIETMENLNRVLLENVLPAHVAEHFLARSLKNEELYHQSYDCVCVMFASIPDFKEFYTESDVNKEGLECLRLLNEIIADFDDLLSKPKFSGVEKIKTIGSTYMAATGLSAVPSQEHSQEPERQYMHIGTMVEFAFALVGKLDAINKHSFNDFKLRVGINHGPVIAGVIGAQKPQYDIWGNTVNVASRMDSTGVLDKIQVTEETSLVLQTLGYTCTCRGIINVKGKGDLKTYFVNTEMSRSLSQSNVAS
# T3 sequence (Q08828 whole entry): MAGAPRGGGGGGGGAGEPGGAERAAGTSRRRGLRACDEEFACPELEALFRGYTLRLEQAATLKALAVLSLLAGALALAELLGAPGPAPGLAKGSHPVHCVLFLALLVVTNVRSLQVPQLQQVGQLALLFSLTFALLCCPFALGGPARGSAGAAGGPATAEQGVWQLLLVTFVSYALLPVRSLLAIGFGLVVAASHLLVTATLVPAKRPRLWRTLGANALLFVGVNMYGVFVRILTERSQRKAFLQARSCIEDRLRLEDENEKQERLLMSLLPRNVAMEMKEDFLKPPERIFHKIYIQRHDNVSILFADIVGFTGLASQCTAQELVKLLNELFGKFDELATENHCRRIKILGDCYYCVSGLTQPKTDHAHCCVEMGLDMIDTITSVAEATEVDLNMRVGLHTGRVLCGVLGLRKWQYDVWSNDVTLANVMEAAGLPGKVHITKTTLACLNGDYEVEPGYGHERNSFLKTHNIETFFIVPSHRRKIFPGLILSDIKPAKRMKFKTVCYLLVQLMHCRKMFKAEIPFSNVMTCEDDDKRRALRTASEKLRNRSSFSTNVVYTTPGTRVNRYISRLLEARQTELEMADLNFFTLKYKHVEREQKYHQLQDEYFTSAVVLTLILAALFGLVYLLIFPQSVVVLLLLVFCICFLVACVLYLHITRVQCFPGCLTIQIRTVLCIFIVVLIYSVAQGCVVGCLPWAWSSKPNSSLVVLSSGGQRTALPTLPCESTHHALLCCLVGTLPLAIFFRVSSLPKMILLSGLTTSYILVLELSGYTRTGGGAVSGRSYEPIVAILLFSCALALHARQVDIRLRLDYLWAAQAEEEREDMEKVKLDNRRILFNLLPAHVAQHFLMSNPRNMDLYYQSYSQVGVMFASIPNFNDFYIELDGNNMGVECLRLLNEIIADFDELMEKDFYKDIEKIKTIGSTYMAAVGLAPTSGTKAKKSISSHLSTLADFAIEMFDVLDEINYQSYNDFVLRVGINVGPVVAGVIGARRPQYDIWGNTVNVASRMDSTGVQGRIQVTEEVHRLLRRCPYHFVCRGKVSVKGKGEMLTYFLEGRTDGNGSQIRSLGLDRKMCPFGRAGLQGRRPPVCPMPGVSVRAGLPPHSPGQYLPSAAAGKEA
# T4 sequence (P40145 whole entry): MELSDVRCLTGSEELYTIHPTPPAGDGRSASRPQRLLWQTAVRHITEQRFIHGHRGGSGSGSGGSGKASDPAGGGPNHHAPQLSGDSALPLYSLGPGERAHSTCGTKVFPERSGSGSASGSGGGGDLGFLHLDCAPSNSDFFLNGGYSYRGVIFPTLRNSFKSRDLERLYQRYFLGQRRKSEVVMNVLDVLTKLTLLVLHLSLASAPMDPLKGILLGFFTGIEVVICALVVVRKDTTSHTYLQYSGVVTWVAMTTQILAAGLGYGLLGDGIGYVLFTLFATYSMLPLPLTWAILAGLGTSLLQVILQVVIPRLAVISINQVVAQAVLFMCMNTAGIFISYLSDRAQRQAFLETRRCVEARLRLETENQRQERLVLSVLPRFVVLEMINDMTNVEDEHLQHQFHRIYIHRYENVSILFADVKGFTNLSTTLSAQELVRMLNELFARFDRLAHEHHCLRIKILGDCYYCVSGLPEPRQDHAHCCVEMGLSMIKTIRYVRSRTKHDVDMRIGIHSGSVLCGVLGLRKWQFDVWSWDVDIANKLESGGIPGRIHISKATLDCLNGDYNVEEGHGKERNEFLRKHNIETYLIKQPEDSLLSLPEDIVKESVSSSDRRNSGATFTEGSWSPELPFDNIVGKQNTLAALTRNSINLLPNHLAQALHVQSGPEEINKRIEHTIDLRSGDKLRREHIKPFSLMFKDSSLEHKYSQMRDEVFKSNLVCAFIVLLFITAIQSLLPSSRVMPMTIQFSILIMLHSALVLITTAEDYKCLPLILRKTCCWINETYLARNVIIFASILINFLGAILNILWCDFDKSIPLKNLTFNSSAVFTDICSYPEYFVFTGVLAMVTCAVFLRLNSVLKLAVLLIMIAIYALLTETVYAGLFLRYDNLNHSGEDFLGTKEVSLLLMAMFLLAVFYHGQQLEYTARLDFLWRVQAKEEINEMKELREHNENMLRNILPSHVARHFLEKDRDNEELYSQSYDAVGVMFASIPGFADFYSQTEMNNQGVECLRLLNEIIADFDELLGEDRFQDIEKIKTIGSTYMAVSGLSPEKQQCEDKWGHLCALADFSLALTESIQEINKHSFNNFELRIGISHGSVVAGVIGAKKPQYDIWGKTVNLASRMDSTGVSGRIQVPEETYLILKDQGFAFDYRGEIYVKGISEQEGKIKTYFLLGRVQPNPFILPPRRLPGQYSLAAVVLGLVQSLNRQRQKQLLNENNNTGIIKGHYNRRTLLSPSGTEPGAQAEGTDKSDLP
inhibition at 30 µM (hAC1 [5]; Table 2),IC50 (hAC1 [5]; [14]),inhibition at 30 µM (hAC8; Table 2),Structure (SMILES),hAC2 % Inhib (hAC2 [3]),hAC5 % Inhib (hAC5 [4]),Selectivity AC1 vs AC8 (hAC1 [5]),hAC1 % Inhib (hAC1 [5]; [11]),IC50 (hAC1 [5]; [12]),Viability % Veh (HEK-AC1 cells [6]),hAC8 % Inhib (hAC8; Table 1),also measured
,,,Nc1ncnc2c1ncn2CCNCCCCCO [NB001],,,,,,,,chronic pain responses (inflammatory and neuropathic) (chronic pain responses [1]): markedly attenuated chronic pain responses; chronic pain responses (inflammatory and neuropathic) (chronic pain responses [2]): markedly attenuated chronic pain responses
,,,O=C(Nc1nnc(-c2ccc3c(c2)OCCO3)o1)c1ccc(Br)cc1 [Compound F0608-0011],−7%,−10%,9-fold,101 ± 1%,2 ± 0.2 µM,125 ± 3 % Veh,79 ± 1%,IC50 (hAC8; [13]): 18 ± 2 µM
,,,CC1CC(C)CN(S(=O)(=O)c2ccc(C(=O)Nc3nnc(-c4cccs4)o3)cc2)C1 (stereo not shown) [Compound F0559-0346],−6%,4%,2-fold,99 ± 1%,9.1 ± 2 µM,118 ± 2 % Veh,74 ± 13%,IC50 (hAC8; [13]): 17 ± 6 µM
,,,"O=c1cc(C(Cl)(Cl)Cl)oc2ccc(Cl)cc12 [ST034307, 6-chloro-2-(trichloromethyl)-4H-chromen-4-one]",,,,,,,,hAC1 % Inhib (hAC1 [7]): 108 ± 10%; hAC2 % Inhib (hAC2 [8]): −142%; Viability % Veh (HEK-AC1 cells [9]): 85 ± 6 % Veh; hAC5 % Inhib (hAC5 [10]): −44%
92 ± 2%,10.3 ± 2 µM,16 ± 9%,"Cc1cc(NC(=O)c2ccco2)n(-c2nc(=O)cc(C)[nH]2)n1 [AC10043, N-(3-methyl-1-(6-methyl-4-oxo-1,4-dihydropyrimidin-2-yl)-1H-pyrazol-5-yl)furan-2-carboxamide]",,,,,,,,
101 ± 0.7%,1.5 ± 0.3 µM,9 ± 4%,"Cc1cc(NC(=O)c2ccccc2F)n(-c2nc(=O)cc(C)[nH]2)n1 [AC10042, 2-Fluoro-N-(3-methyl-1-(6-methyl-4-oxo-1,4-dihydropyrimidin-2-yl)-1H-pyrazol-5-yl)benzamide]",,,,,,,,
,,,CSc1ccccc1C(=O)Nc1cc(C)nn1-c1nc2c(c(=O)[nH]1)CCC2 [Compound F2215-0954],−185%,−21%,>5-fold,99 ± 1%,5.9 ± 0.4 µM,106 ± 14 % Veh,35 ± 8%,
,,,CCc1c(C)nc(-n2nc(C)cc2NC(=O)c2ccco2)[nH]c1=O [Compound F2215-0772],32%,13%,>30-fold,100 ± 1%,0.9 ± 0.2 µM,93 ± 1 % Veh,34 ± 7%,
4 ± 7%,,,"Cc1cc(NC(=O)C2CC2)n(-c2nc(=O)cc(C)[nH]2)n1 [AC10051, N-(3-methyl-1-(6-methyl-4-oxo-1,4-dihydropyrimidin-2-yl)-1H-pyrazol-5-yl)cyclopropanecarboxamide]",,,,,,,,
,,,CSc1cccc(C(=O)Nc2nnc(C3CCCCC3)o2)c1 [Compound F2289-0107],−210%,−28%,>4-fold,99 ± 1%,7.5 ± 2 µM,117 ± 1 % Veh,31 ± 2%,
,,,O=C(Nc1nnc(-c2ccc3c(c2)CCCC3)o1)c1ccccc1 [Compound F0608-0538],−95%,−34%,10-fold,101 ± 1%,2.1 ± 0.4 µM,118 ± 6 % Veh,76 ± 8%,IC50 (hAC8; [13]): 21 ± 4 µM
94 ± 1%,3.7 ± 0.2 µM,9 ± 2%,"Cc1cc(NC(=O)c2cccc(F)c2)n(-c2nc(=O)cc(C)[nH]2)n1 [AC10057, 3-fluoro-N-(3-methyl-1-(6-methyl-4-oxo-1,4-dihydropyrimidin-2-yl)-1H-pyrazol-5-yl)benzamide]",,,,,,,,
98 ± 1%,1.3 ± 0.2 µM,26 ± 4%,"CCc1cc(=O)nc(-n2nc(C)cc2NC(=O)c2cccc(F)c2)[nH]1 [AC10049, N-(1-(6-ethyl-4-oxo-1,4-dihydropyrimidin-2-yl)-3-methyl-1H-pyrazol-5-yl)-3-fluorobenzamide]",,,,,,,,"IC50 (hAC8; Table 2, read-out: HEK-AC8 IC50): 68 ± 10 µM"
79 ± 4%,16.7 ± 1 µM,,"CCc1cc(=O)nc(-n2nc(C)cc2NC(=O)C2CC2)[nH]1 [AC10050, N-(1-(6-ethyl-4-oxo-1,4-dihydropyrimidin-2-yl)-3-methyl-1H-pyrazol-5-yl)cyclopropanecarboxamide]",,,,,,,,
,,,CCc1cc(=O)[nH]c(-n2nc(C)cc2NC(=O)c2ccccc2F)n1 [Compound F2215-0213],−70%,9%,,99 ± 1%,0.5 ± 0.1 µM,101 ± 17 % Veh,20 ± 1%,
99 ± 1%,1.2 ± 0.2 µM,19 ± 4%,"CCc1cc(=O)nc(-n2nc(C)cc2NC(=O)c2ccc(Cl)cc2)[nH]1 [AC10058, 4-chloro-N-(1-(6-ethyl-4-oxo-1,4-dihydropyrimidin-2-yl)-3-methyl-1H-pyrazol-5-yl)benzamide]",,,,,,,,

Structure (SMILES),inhibition at 30 µM (hAC1 [5]; Table 2),IC50 (hAC1 [5]; [14]),inhibition at 30 µM (hAC8; Table 2),hAC2 % Inhib (hAC2 [3]),hAC5 % Inhib (hAC5 [4]),Selectivity AC1 vs AC8 (hAC1 [5]),hAC1 % Inhib (hAC1 [5]; [11]),IC50 (hAC1 [5]; [12]),Viability % Veh (HEK-AC1 cells [6]),hAC8 % Inhib (hAC8; Table 1),also measured
"CCc1cc(=O)nc(-n2nc(C)cc2NC(=O)c2ccccc2F)[nH]1 [AC10048, N-(1-(6-ethyl-4-oxo-1,4-dihydropyrimidin-2-yl)-3-methyl-1H-pyrazol-5-yl)-2-fluorobenzamide]",99 ± 2%,0.58 ± 0.2 µM,19 ± 11%,,,,,,,,
